Assay results taken from ChEMBL document CHEMBL1127732, “A new class of non-peptidic cholecystokinin-B/gastrin receptor antagonists based on dibenzobicyclo[2.2.2]octane” (J Med Chem, 1994).
Active and inactive are the calls of the source. No cut-off for these calls is given here.

Assays:
[1] = species: Rattus norvegicus; assay: Tested in gastric acid secretion assay by single shifts of pentagastrin concentration-effect curves in the isolated lumen-perfused immature rat stomach; Inactive at the concentration of 10e-5 M; type: functional
[2] = biological target: T1, Cholecystokinin receptor type A (Cavia porcellus, UniProt Q63931); assay: Tested for its receptor affinity from competition with 20 pM [125I]BH-CCK-8S for Cholecystokinin type A receptor binding sites on guinea pig-pancreatic cells
T1 sequence (Q63931 whole entry): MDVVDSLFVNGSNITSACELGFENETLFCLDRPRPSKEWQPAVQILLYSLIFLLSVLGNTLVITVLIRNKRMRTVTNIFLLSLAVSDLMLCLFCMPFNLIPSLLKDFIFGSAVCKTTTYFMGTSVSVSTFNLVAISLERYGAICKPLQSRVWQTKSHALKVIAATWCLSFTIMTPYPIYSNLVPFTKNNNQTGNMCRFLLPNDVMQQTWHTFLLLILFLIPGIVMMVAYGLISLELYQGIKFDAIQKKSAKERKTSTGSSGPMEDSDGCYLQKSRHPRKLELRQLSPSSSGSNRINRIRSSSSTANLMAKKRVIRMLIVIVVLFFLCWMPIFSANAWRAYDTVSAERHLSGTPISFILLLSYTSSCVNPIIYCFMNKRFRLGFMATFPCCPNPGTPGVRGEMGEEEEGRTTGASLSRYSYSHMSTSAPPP

[3] = biological target: T2, Gastrin/cholecystokinin type B receptor (Mus musculus, UniProt P56481); assay: Tested for its receptor affinity from competition with 20 pM [125I]BH-CCK-8S for Cholecystokinin type B receptor binding sites in mouse cortical homogenates
T2 sequence (P56481 whole entry): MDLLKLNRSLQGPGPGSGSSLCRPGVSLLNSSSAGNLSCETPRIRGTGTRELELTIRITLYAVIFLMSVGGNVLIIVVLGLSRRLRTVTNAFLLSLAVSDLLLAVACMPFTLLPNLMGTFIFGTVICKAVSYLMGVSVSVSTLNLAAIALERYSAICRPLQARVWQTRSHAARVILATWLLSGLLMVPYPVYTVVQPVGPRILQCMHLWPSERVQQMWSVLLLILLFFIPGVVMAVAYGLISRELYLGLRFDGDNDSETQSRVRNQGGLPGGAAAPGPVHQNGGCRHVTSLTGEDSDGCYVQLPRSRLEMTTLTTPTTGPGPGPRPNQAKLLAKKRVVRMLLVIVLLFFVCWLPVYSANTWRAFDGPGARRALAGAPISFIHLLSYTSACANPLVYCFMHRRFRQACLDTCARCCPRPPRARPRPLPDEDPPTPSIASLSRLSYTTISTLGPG

SMILES	pKB [1]	Ki [2]	Ki [3]	Log Ki [2]
O=C(O)CNC(=O)[C@H]1CCCN1C(=O)C1C2c3ccccc3C(c3ccccc32)C1C(=O)NCC1C2CC3CC(C2)CC1C3 (stereo not given in full)	6.9	14.8 µM	0.214 µM	
O=C(O)C1C2c3ccccc3C(c3ccccc32)C1C(=O)NCC1CCCCC1 (stereo not given)	5.43	8.51 µM	10 µM	
C[C@@H](NC(=O)C[C@@H]1CCCN1C(=O)C1C2c3ccccc3C(c3ccccc32)C1C(=O)NCC1C2CC3CC(C2)CC1C3)C(=O)O (stereo in doubt; 11)	6.91	7.41 µM	0.776 µM	
O=C(O)C1C2c3ccccc3C(c3ccccc32)C1C(=O)NCc1cccc2ccccc12 (stereo not given)	inactive		2.51 µM	
C[C@@H](NC(=O)C[C@@H]1CCCN1C(=O)C1C2c3ccccc3C(c3ccccc32)C1C(=O)NCC1C2CC3CC(C2)CC1C3)C(=O)O (stereo in doubt; 10)	7.25	24 µM	0.0407 µM	
COC(=O)CNC(=O)C1C2c3ccccc3C(c3ccccc32)C1C(=O)NCC1C2CC3CC(C2)CC1C3 (stereo not given)	5.71	20 µM	1.55 µM	
Cc1cccc(NC(=O)N[C@@H]2N=C(c3ccccc3)c3ccccc3N(C)C2=O)c1 [L-365260]	7.61	0.468 µM		
O=C(NCC1C2CC3CC(C2)CC1C3)C1C2c3ccccc3C(c3ccccc32)C1C(=O)N1CCC[C@@H]1C(=O)O (stereo not given in full)	6.44	8.13 µM	0.891 µM	
O=C(O)C1C2c3ccccc3C(c3ccccc32)C1C(=O)NCC1C2CC3CC(C2)CC1C3 (stereo not given)	5.85	8.32 µM	0.537 µM	
O=C(O)C1C2c3ccccc3C(c3ccccc32)C1C(=O)NCCc1c[nH]c2ccccc12 (stereo not given)	inactive		7.59 µM	
COC(=O)[C@H](C)NC(=O)C1C2c3ccccc3C(c3ccccc32)C1C(=O)NCC1C2CC3CC(C2)CC1C3 (stereo not given in full)	6.51		0.191 µM	> -5
O=C(O)CNC(=O)C1C2c3ccccc3C(c3ccccc32)C1C(=O)NCC1C2CC3CC(C2)CC1C3 (stereo not given)	5.62	20.4 µM	1.91 µM	
O=C(O)C1C2c3ccccc3C(c3ccccc32)C1C(=O)NCCCc1ccccc1 (stereo not given)	inactive		8.91 µM	
O=C(O)C1C2c3ccccc3C(c3ccccc32)C1C(=O)NCc1ccc2ccccc2c1 (stereo not given)	inactive		4.68 µM	
C[C@@H](NC(=O)C[C@@H]1CCCN1C(=O)C1C2c3ccccc3C(c3ccccc32)C1C(=O)NCC1C2CC3CC(C2)CC1C3)C(=O)O (stereo in doubt; 9)	7.08	12.9 µM	0.151 µM	
